Where two headings read alike, the source gives them in different places.
How the values were obtained:
[1] = molecular target: ACK1 (Homo sapiens, UniProt Q07912); assay: KiNativ in situ kinase profiling, OCI-AML3 cells; type: cell-based
Procedure: (§1) Samples were analyzed by KiNativ in situ kinase profiling by ActivX Biosciences.

[2] = molecular target: T1, GCK (Homo sapiens, UniProt Q12851); assay: KiNativ in situ kinase profiling, OCI-AML3 cells; type: cell-based
T1 sequence (Q12851 1-820): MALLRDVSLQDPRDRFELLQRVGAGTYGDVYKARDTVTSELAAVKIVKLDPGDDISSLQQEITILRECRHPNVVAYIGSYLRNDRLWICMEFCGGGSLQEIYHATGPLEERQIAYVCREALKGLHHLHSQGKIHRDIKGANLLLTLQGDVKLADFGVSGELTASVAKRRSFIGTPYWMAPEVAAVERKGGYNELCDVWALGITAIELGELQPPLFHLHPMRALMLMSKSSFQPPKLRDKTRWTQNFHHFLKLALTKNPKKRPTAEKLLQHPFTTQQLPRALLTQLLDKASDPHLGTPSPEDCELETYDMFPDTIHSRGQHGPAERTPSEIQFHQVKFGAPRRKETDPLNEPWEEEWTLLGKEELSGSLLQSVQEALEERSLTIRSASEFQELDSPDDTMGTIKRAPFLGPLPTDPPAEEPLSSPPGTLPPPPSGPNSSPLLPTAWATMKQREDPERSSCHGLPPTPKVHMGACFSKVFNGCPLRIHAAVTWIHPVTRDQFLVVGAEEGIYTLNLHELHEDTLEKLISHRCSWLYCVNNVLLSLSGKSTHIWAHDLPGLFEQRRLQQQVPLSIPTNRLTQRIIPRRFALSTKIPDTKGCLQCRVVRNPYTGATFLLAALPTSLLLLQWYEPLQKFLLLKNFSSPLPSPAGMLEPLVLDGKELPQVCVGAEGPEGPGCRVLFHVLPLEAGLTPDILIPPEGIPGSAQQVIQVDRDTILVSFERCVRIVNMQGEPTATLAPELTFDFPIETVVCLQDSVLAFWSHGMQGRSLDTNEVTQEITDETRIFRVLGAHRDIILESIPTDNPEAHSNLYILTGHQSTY
Procedure: as §1

[3] = test system: native kinases in MOLM13 cells; assay: KiNativ in situ kinase profiling, MOLM13 cells; type: cell-based, human; conditions: 100 nM, compared with DMSO
Procedure: as §1

[4] = molecular target: DLK (Homo sapiens, UniProt Q12852); assay: KiNativ, OCI cells live cell; type: cell-based; conditions: labeling site Lys2, peptide DLKSPNMLITYDDVVK
DLK, sequence (Q12852 whole entry): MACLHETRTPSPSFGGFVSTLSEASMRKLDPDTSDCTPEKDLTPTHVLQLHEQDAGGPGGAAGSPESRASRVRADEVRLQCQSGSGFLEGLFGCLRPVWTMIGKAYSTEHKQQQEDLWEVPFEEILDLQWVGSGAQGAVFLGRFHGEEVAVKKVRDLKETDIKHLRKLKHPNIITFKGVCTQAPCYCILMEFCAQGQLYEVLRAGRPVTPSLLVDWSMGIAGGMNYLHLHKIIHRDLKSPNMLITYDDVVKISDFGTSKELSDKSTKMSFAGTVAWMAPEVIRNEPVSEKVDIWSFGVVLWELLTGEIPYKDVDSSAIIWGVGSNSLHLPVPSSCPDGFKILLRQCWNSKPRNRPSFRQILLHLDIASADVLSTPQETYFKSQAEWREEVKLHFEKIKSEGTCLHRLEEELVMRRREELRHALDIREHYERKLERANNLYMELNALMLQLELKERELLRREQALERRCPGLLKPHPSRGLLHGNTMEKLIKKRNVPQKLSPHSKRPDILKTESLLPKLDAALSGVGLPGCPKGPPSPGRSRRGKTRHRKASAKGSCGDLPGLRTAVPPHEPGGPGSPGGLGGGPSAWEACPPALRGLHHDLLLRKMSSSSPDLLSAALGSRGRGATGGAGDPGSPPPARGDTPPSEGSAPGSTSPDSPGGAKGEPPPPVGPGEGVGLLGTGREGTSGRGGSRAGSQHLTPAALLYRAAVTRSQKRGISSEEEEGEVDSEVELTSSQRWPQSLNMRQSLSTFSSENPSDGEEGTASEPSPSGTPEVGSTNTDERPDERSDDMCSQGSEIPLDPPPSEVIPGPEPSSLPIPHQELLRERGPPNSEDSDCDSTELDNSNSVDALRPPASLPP

[5] = molecular target: DNAPK (Homo sapiens, UniProt P78527); assay: KiNativ, OCI cells live cell; type: cell-based; conditions: 2 h, labeling site ATP
[6] = molecular target: EphB3 (Homo sapiens, UniProt P54753); assay: KiNativ, OCI cells live cell; type: cell-based; conditions: 2 h, labeling site Activation Loop, peptide […]
[7] = molecular target: IRAK1 (Homo sapiens, UniProt P51617); assay: KiNativ, OCI cells live cell; type: cell-based; conditions: 2 h, labeling site Lys2, peptide […]
[8] = molecular target: T2, JAK1 domain2 (Homo sapiens, UniProt P23458); assay: KiNativ, OCI cells live cell; type: cell-based
T2 construct: JAK1 domain2
T2 sequence (P23458 whole entry, the tested form may be a part): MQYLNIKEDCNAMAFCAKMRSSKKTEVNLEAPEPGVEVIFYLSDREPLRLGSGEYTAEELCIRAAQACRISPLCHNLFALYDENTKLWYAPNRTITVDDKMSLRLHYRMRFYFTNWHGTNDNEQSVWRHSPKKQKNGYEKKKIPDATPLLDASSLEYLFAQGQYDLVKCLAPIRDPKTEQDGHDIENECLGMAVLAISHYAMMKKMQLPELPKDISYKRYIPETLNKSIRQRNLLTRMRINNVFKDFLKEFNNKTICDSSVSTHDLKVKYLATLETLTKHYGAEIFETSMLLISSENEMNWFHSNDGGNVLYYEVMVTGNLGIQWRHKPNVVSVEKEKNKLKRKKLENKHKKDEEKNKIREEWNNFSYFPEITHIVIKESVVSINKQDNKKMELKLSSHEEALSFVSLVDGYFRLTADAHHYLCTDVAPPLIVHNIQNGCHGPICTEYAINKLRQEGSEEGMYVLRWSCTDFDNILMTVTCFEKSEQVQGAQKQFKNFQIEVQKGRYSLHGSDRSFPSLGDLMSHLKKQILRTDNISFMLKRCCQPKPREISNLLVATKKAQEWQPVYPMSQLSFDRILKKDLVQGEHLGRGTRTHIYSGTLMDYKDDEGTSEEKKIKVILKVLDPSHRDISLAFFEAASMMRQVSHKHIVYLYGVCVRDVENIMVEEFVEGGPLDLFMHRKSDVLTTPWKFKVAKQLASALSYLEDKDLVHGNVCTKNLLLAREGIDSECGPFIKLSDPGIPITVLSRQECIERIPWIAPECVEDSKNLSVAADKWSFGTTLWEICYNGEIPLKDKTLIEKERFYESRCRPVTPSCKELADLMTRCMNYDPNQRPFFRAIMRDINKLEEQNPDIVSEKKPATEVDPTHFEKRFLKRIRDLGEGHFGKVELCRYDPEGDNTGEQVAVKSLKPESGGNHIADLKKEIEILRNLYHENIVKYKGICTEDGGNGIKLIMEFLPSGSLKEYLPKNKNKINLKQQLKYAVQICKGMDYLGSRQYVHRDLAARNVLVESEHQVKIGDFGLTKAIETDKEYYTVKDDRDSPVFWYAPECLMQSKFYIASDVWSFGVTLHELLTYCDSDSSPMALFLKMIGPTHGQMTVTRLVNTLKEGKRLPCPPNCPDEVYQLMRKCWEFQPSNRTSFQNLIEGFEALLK

[9] = molecular target: NEK2 (Homo sapiens, UniProt P51955); assay: KiNativ, OCI cells live cell; type: cell-based; conditions: 2 h, labeling site Lys2, peptide […]
NEK2, sequence (P51955 whole entry): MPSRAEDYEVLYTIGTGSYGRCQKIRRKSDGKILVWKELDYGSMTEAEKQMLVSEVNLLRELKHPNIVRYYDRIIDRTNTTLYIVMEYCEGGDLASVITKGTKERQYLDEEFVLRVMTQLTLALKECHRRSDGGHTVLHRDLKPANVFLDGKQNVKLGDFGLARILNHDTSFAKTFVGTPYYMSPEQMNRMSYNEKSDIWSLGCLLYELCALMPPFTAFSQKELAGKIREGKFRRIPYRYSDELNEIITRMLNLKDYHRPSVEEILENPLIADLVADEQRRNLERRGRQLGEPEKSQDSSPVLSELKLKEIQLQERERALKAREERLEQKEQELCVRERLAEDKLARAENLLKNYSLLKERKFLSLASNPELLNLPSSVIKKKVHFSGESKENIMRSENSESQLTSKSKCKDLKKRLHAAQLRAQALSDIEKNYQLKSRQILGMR

[10] = test system: p38d, p38g; assay: KiNativ, OCI cells live cell; type: cell-based, human; conditions: labeling site Lys2, peptide DLKPGNLAVNEDCELK
[11] = molecular target: PCTAIRE2 (Homo sapiens, UniProt Q00537); assay: KiNativ, OCI cells live cell; type: cell-based; conditions: 2 h, labeling site Lys2, peptide […]
[12] = molecular target: PFTAIRE2 (Homo sapiens, UniProt Q96Q40); assay: KiNativ, OCI cells live cell; type: cell-based; conditions: 2 h, labeling site Lys2, peptide […]
[13] = molecular target: PIK3C2B (Homo sapiens, UniProt O00750); assay: KiNativ, OCI cells live cell; type: cell-based; conditions: 2 h, labeling site ATP, peptide […]
PIK3C2B, sequence (O00750 whole entry): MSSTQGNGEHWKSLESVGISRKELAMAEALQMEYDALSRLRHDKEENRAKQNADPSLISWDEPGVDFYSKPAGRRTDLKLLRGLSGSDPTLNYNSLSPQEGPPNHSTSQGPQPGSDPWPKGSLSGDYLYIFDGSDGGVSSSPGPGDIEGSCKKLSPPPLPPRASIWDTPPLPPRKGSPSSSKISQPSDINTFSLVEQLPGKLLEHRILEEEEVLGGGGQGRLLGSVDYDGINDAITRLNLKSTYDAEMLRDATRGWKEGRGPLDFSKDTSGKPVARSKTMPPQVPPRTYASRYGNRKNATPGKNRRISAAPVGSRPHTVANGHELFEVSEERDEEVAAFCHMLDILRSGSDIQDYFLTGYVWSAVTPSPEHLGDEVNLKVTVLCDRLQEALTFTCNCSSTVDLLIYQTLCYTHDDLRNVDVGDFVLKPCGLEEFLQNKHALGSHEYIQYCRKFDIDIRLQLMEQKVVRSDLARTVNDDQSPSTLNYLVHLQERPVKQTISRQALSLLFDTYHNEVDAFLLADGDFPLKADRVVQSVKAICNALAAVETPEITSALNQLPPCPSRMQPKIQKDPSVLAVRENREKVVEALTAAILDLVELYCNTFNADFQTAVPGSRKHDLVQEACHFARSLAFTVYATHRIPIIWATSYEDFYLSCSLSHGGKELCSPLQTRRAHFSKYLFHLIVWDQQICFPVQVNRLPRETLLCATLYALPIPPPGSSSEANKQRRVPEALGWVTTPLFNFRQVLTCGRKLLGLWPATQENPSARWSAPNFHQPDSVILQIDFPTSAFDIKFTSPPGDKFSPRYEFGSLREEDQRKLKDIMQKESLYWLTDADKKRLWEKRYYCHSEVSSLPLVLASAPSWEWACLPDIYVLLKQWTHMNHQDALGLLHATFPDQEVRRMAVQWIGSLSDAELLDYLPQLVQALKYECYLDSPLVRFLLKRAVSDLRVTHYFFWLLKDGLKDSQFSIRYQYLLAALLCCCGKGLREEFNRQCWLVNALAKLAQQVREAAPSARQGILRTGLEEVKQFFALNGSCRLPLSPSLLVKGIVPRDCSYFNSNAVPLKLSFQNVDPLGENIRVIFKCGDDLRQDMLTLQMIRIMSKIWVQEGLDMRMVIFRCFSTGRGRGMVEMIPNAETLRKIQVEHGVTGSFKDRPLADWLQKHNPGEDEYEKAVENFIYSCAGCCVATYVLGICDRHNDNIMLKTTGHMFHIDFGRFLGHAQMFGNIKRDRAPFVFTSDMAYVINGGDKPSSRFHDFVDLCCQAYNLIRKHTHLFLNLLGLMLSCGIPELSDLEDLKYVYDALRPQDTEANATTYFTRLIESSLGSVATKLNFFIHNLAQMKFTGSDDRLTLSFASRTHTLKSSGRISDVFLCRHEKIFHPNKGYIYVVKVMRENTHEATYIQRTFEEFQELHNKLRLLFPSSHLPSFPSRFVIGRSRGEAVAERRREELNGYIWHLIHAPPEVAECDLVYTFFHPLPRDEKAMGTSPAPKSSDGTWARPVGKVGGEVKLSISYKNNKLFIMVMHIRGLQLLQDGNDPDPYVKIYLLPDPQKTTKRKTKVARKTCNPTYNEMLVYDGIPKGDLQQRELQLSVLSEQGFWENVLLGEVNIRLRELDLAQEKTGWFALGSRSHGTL

[14] = molecular target: SMG1 (Homo sapiens, UniProt Q96Q15); assay: KiNativ, OCI cells live cell; type: cell-based; conditions: labeling site ATP
[15] = molecular target: T3, STLK5 (Homo sapiens, UniProt Q7RTN6); assay: KiNativ, OCI cells live cell; type: cell-based; conditions: 2 h, labeling site Lys2, peptide […]
T3 sequence (Q7RTN6 1-431): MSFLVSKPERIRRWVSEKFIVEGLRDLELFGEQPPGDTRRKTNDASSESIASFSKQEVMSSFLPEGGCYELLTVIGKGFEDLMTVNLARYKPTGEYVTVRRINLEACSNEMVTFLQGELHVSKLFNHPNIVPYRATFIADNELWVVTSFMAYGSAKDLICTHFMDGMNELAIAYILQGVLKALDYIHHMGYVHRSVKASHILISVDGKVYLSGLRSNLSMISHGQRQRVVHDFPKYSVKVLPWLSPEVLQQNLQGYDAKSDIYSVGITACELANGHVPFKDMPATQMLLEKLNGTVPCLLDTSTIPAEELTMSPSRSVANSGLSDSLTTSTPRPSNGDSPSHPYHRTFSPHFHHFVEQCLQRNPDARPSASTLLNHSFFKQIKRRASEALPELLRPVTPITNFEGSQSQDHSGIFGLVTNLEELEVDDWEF

ACK1, sequence (Q07912 whole entry): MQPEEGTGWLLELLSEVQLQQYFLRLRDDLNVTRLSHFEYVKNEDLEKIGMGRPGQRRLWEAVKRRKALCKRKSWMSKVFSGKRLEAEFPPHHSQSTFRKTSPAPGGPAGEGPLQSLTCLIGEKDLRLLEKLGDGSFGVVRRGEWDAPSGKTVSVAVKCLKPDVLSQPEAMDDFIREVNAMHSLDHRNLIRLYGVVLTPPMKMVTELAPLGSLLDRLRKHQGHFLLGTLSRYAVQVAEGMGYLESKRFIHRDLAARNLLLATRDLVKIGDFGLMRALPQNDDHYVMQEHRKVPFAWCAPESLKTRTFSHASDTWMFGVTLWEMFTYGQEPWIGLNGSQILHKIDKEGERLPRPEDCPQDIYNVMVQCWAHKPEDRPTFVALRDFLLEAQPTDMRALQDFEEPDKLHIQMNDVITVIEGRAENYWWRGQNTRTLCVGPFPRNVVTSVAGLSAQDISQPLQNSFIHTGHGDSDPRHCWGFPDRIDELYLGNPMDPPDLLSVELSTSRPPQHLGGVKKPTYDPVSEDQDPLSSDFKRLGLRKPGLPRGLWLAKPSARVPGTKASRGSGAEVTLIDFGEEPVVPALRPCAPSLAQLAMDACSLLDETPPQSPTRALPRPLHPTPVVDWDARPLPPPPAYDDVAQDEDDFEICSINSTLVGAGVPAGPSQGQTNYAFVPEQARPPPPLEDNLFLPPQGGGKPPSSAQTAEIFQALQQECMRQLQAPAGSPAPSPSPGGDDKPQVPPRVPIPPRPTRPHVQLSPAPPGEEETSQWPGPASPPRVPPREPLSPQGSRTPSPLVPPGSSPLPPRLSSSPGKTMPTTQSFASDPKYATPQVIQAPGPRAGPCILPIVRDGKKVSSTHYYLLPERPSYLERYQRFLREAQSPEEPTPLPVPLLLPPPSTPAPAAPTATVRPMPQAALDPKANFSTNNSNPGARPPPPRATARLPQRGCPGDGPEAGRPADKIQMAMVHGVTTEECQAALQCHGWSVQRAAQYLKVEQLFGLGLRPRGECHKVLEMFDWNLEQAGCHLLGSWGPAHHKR

In the case of `CN1CCN(Cc2ccc(Nc3ncc(Cl)c(Nc4ccccc4S(=O)(=O)N(C)C)n3)cc2)CC1` [TP-0903], the inhibition at 0.1 µM ([1]; OCI-AML-3, 2 h, OCI cells, live cell, labeling site Activation Loop, peptide KVPFAWCAPESLK, read-out: Inhibition) was 81.6%, the inhibition at 0.1 µM ([1]; OCI-AML-3, 2 h, OCI cells, live cell, labeling site Lys1, peptide TVSVAVKCLKPDVLSQPEAMDDFIR, read-out: Inhibition) was 86.9% and the inhibition at 0.1 µM ([1]; OCI-AML-3, OCI-AML3 cells, 100 nM, read-out: Inhibition of ACK1) was 87%. For the same molecule, the inhibition at 0.1 µM ([2]; OCI-AML-3, 2 h, OCI cells, live cell, labeling site Lys1, peptide DTVTSELAAVKIVK, read-out: Inhibition) was 45.6%, the inhibition at 0.1 µM ([2]; OCI-AML-3, 2 h, OCI cells, live cell, labeling site Lys2, peptide DIKGANLLLTLQGDVK, read-out: Inhibition) was 42.3% and the inhibition at 0.1 µM ([2]; OCI-AML-3, OCI-AML3 cells, 100 nM, read-out: Inhibition of GCK) was 46%. For the same molecule, the “Inhibition of AURKA/B/C, CDK6/7, BTK, and JAK1” value [3] was “moderate to strong inhibition”, the Inhibition [4] was 91.0% and the inhibition at 0.1 µM ([5]; peptide EHPFLVKGGEDLR) was 2.8%. The inhibition at 0.1 µM ([5]; peptide KGGSWIQEINVAEK) was 8.4%, the inhibition at 0.1 µM [6] was 17.1% and the inhibition at 0.1 µM [7] was 62.8%. For the same molecule, the Inhibition ([8]; labeling site Activation Loop, peptide IGDFGLTKAIETDKEYYTVK) was -56.4%, the Inhibition ([8]; labeling site Lys1, peptide YDPEGDNTGEQVAVKSLKPESGGNHIADLKK) was -85.5% and the inhibition at 0.1 µM [9] was 23.6%. It also gave an Inhibition [10] of -17.4%, an inhibition at 0.1 µM [11] of 87.8% and an inhibition at 0.1 µM [12] of 28.4%. The inhibition at 0.1 µM [13] was 0.282%, the Inhibition ([14]; peptide DTVTIHSVGGTITILPTKTKPK) was 12.1% and the Inhibition ([14]; peptide SYPYLFKGLEDLHLDER) was -6.4%. The inhibition at 0.1 µM [15] was -46.6%.

From article PMC7714403 (JCI Insight, 2020)
